The source of these data is PubChem BioAssay AID1053201 (The Scripps Research Institute Molecular Screening Center, 2014).

Structures are written as SMILES. Calls of active or inactive are those of the source. No rule for the calls is given here.

For orientation: inhibition means the drop in the measured response relative to a control, in per cent.

This test has as its system methionyl-tRNA synthetase (Trypanosoma brucei brucei). Nature of the test: inhibition of trypanosome methionyl-tRNA synthetase aminoacylation – biochemical, radioactivity, assay provider, round 3, late-stage follow-up (AID 1053201). To be noted: recombinant T. brucei MetRS enzyme, [3H]methionine tRNA aminoacylation filter assay, 2 h, stronger effect = higher value.

As for `CCN(CC)C(=O)C(=O)c1cn(CCNc2cccc(C(F)(F)F)c2)c2ccccc12`, the inhibition (at 10 µM) is -18.4% (inactive) and the inhibition (inhibition, at 1 µM) is -21.5%.
With `CCN(CC)C(=O)Cc1cn(CC(=O)Nc2cccc(C(F)(F)F)c2)c2ccccc12`, the inhibition was -16.7% (inactive) (at 10 µM) and -13.1% (inhibition, at 1 µM).
The matching figures for `CCN(CC)C(=O)C(=O)c1cn(CC(=O)Nc2cc(Oc3ccc(F)cc3)cc(C(F)(F)F)c2)c2ccccc12`: 97.3% and 93.1%.
For the molecule `CCN(CC)C(=O)C(=O)c1cn(CC(=O)Nc2cc(Oc3ccccc3F)cc(C(F)(F)F)c2)c2ccccc12`, the inhibition (at 10 µM) is 95.6% and the inhibition (inhibition, at 1 µM) stood at 91.9%.
In the same order, the values of `O=C(Cc1ccc(Nc2nc3ccc(Br)cc3[nH]2)cc1)NCCc1cccs1` are 23.3% (inactive) and -10.2%.
As to `CCN(CC)C(=O)C(=O)c1cn(CC(=O)Nc2cc(Oc3ccccc3OC)cc(C(F)(F)F)c2)c2ccccc12`, the inhibition is 98.2% (at 10 µM) and 94.7% (inhibition, at 1 µM).
For `CCN(CC)C(=O)C(=O)c1cn(CC(=O)Nc2cc(Oc3ccc(OC)cc3)cc(C(F)(F)F)c2)c2ccccc12`, the inhibition is 94.1% (at 10 µM) and 92.3% (inhibition, at 1 µM).
In the case of `CCN(CC)C(=O)C(=O)c1cn(CCNc2cc(Oc3ccccc3)cc(C(F)(F)F)c2)c2ccccc12`, the inhibition (at 10 µM) was 8.12% (inactive) and the inhibition (inhibition, at 1 µM) is -20.2%.
In the same order, the values of `O=C(Cn1cc(C(=O)C(=O)NCc2ccccc2)c2ccccc21)Nc1cc(Oc2ccccc2)cc(C(F)(F)F)c1` are 47.9% (inactive) and 9.14%.
As to `Nc1c(Cl)ncnc1Nc1ccc(C(=O)O)cc1`, the inhibition was 43.1% (inactive) (at 10 µM) and -5.91% (inhibition, at 1 µM).
